# According to patent US20060241108A1, “Substituted phenoxazines and acridones as inhibitors of AKT” (St. Jude Children's Research Hospital, priority 2005, published 2006):
# Assays:
# Format in all cases: cell-based, human
# [1] = test system: AKT; test: Inhibition of IGF-I stimulated AKT phosphorylation (Ser473) in Rh1 cells, Western blot; conditions: for inhibition of AKT phosphorylation: 2.5 μM, Rh1 cells serum free, IGF-I; for Inhibition (phosphorylation of AKT at Ser 473): 5 μM, 1 hour, serum starved Rh1 cells, IGF-I 10 ng/ml 10 minutes, average of two experiments
# Method: (§1) Cell lines and growth conditions. The human cell lines Rh1, Rh18, and Rh30 (ATCC Deposit # CRL 2061) have been described, e.g., by Hazelton et al. Cancer Res 1987;47:4501-4507 and Hosoi et al. Cancer Res. 1999;59:886-894. Rh1, Rh18 and Rh30 cells can each be grown in antibiotic free RPMI-1640 medium (available from BioWhittaker, Walkersville, Md.), supplemented with 10% fetal bovine serum (available from HyClone Laboratories, Logan, Utah) and 2 mM L-glutamine (available from BioWhittaker, Walkersville, Md.) at 37° C. in an atmosphere of 5% CO2. For serum free experiments, cells can be cultured in modified N2E (MN2E) medium (DMEM/F-12, 1:1 mixture) (Sigma, St. Louis, Mo.) supplemented with 1 μg/ml human holo transferrin, 30 nM sodium selenite, 20 nM progesterone, 100 μM putrescine, 30 nM vitamin E phosphate, and 50 μM ethanolamine. Cells in MN2E medium containing 5 μg/ml bovine fibronectin (available from Sigma, St. Louis, Mo.) are preferably plated, and allowed to attach overnight at 37° C. in a humidified, 5% CO2 atmosphere.
# (§2) Cellular screening for inhibitors. Rh1, Rh18 and Rh30 cells can each be seeded at a density of 4×10^6/10-cm plate in serum-free medium for overnight attachment. The cells can then be exposed to 0.1% DMSO or to a test compound (for example, a phenoxazine or acridone compound) for one hour, then stimulated with Insulin-like growth factor-I (IGF-I) (10 ng/ml) for 10 minutes.
# (§3) Western blot analysis. Cells are rapidly washed with ice-cold phosphate-buffered saline (PBS), placed on ice, and lysed in mammalian protein extraction reagent (M-PER; available from Pierce, Rockford, Ill.) containing one Complete™ mini protease inhibitor tablet (available from Boehringer Mannheim, Mannheim, Germany), 1 mM phenylmethylsulfonyl fluoride, 1 mM Na3VO4 and 1 mM NaF. Cellular debris is pelleted by centrifugation at 17,500×g for 10 minutes at 4° C. The protein concentration of the supernatants is measured by the bicinchoninic acid assay (e.g., using the BCA™ Protein Assay Kit, Pierce, Rockford, Ill., catalog number 23225 or 23227) using bovine serum albumin as the standard.
# For the analysis of AKT, ERK-1/2, mTOR, p70S6 kinase, ribosomal protein S6 (rpS6 or S6), and glycogen synthase kinase 3 (GSK-3), equivalent amounts of protein can be separated on a 12% SDS-polyacrylamide gel (available from BioRad, Hercules, Calif.) by electrophoresis and subsequently transferred to a nitrocellulose membrane (also available from BioRad). After a 1 hour incubation in 1×TBS containing 0.05% Tween 20 and 5% blocking reagent (skim milk) (available from Upstate Biotechnology, Lake Placid, N.Y.) at room temperature, the wet nitrocellulose membranes are incubated with appropriate antibodies (available from Cell Signaling Technology, Beverly, Mass.): rabbit polyclonal antiserum specific for the phosphorylated Ser473 or Thr308 of AKT (dilution 1:1000); rabbit polyclonal antiserum specific for phosphorylated Thr202/Tyr204 of ERK-1/2 (dilution 1:1000); rabbit polyclonal antiserum specific for phosphorylated Ser2448 or Ser2481 of mTOR (dilution 1:1000); rabbit polyclonal antiserum specific for phosphorylated Thr389 of p70S6 kinase (dilution 1:4000); rabbit polyclonal antiserum specific for phosphorylated Ser235/236 of rpS6 (dilution 1:1000); or rabbit polyclonal antiserum specific for phosphorylated Ser21/9 of GSK-3α/β (dilution 1:1000). Horseradish peroxidase-conjugated goat anti-rabbit IgG antibody (dilution 1:10,000) can be used as the secondary antibody. Immunoreactive protein can be visualized using Renaissance chemiluminescence reagent (available from Life Science Products Inc., Boston, Mass.).
# For these assays, Rh1 cells are seeded in serum-free medium for overnight attachment. The serum starved Rh1 cells are then exposed to 1-5 μM of a compound in Table I for 1 hour before stimulating with IGF-I (10 ng/ml) for 10 minutes. […]
# [2] = test system: mTOR (Ser2448 and Ser2481), rpS6 (Ser235/236) and p70S6 kinase (Thr389); test: IGF-I induced phosphorylation of AKT downstream targets in Rh1 cells, Western blot; conditions: 3.5 to 5.0 μM, 1 hour, Rh1 cells serum-free, IGF-I 10 minutes
# Method: as §2, §3
# For the analysis of AKT, ERK-1/2, mTOR, p70S6 kinase, ribosomal protein S6 (rpS6 or S6), and glycogen synthase kinase 3 (GSK-3), equivalent amounts of protein can be separated on a 12% SDS-polyacrylamide gel (available from BioRad, Hercules, Calif.) by electrophoresis and subsequently transferred to a nitrocellulose membrane (also available from BioRad). […]
# [3] = test system: Rh30 cells; test: Cell growth inhibition, Rh30 cells; conditions: complete medium, six days, nuclei counted
# Method: as §1, with “Cells in MN2E medium containing 5 μg/ml bovine fibronectin (available from Sigma, St. Louis, Mo.) are preferably plated, and allowed to attach overnight at 37° C. in a humidified, 5% CO2 atmosphere.” left out
# Cell growth inhibition. […] Growth can be assessed after lysing cells, and counting nuclei. […]
# The effect(s) of compounds, including phenoxazine compounds such as those listed in Table I, above, on cell growth can be evaluated in cell-based assays such as the exemplary assays described here. Rh1, Rh18 and/or Rh30 cells grown in complete medium can be exposed to graded concentrations of test compound (e.g., from 0.1 to 25 μM) for six days, at which time the cells can be lysed and their growth assessed by counting nuclei. […]
Compound,inhibition of AKT phosphorylation [1],Inhibition (phosphorylation of AKT at Ser 473) [1],"inhibition of IGF-I induced phosphorylation of mTOR, rpS6 and p70S6 kinase [2]",IC50 [3] [µM]
10-[4′-[(β-hydroxyethyl)piperazino]butyl]-2-chlorophenoxazine [Compound 15B],complete inhibition,++++ (++++ ≈ 100% inhibition),markedly inhibited,6
"CCN(CC)CCCCN1c2ccccc2Oc2ccc(Cl)cc21 [Compound 10B, 10-[4′-(N-diethylamino)butyl]-2-chlorophenoxazine]",complete inhibition,++++ (++++ ≈ 100% inhibition),markedly inhibited,6
